From patent publication US10449200B2, “Combined inhibition of the vitamin D receptor and poly(ADP) ribose polymerase (PARP) in the treatment of cancer” (Institute for Cancer Research, priority 2014, dated 2019)
Like-named read-outs stand apart in the source and are kept apart here.

How the values were obtained:
Panc1 cells [1] = test: Cell viability (Cell Titer Glo) in siRNA screen; assay type: cell-based; conditions: Homo sapiens, PANC-1, read-out: sublethal dose (IC20)
Method: Synthetic lethal RNAi Screen. High throughput RNAi was performed using the validated human genome-wide siRNA library version 2.0 obtained from Dharmacon. This is a SMARTPool (4 siRNAs per gene) library that targeted ^˜23,500 of the annotated genes, and has been validated to deplete mRNA by 75%. Stock siRNA was diluted in siRNA buffer (Dharmacon; B-002000-UB-100) and 10 ng of siRNA was reverse transfected into Panc1 cells seeded into white Corning 384-well plates (Fisher Scientific; 07-201-320) in quadruplicates on day 0. Briefly, diluted Dharmafect1 reagent (Dharmacon; T-2001-01) in OptiMEM (Life Technologies; 51985091) was added to the wells and allowed to complex with siRNA for 20 minutes at room temperature. Panc1 cells in 100 μl of DMEM/10% FBS media without PSK were mixed with 100 μl of transfection mix at 1000 cells/well. Plates were incubated at 37° C. with 5% CO2. […] Total viable cell number was determined by the addition of Cell Titer Glo (Promega; G7573) and relative luminescence units (RLU) were measured using an EnVision plate reader (Perkin Elmer). […] The effect of gemcitabine treatment on viability was measured based on the normalized viabilities in the drug treated and vehicle wells using Limma, Statistical significance was measured by p-values controlled for the false discovery rate (FDR) using the Benjamini-Hochberg step-up method to account for multiple testing. […]

CFPAC1 cells = test: Clonogenic survival assay, gemcitabine kill curves; assay type: cell-based; conditions: Homo sapiens
Method: (§1) Cell culture and chemicals. Panc1, BxPC3, and CFPAC1 cells were purchased from American Type Culture Collection (ATCC) and banked in house until use. Cell lines were cultured in DMEM/10% FBS supplemented with 2 mM glutamine and 1% penicillin, streptomycin, and kanamycin (PSK) and were maintained at 37° C. in 5% CO2. Charcoal stripped (in house cell culture facility) and dialyzed FBS (Life Technologies; 509 26400-036) were used. Gemcitabine was obtained from the in house pharmacy. Rucaparib and trichostatin A were gifts.
(§2) Cell viability assays. For clonogenic assays, 1000 cells per well were seeded into 6 well plates on day 0. Cells were treated with gemcitabine at various doses on day 1 for 24 hours, Gemcitabine was washed out on day 2, and cells were allowed to grow for a subsequent 10 days before being fixed (10% methanol+10% acetic acid) and stained with crystal violet (0.4% in 20% ethanol) for colony counting and quantitation. For Rucaparib clonogenic assays, the drug was added at various doses 24 hours after cell plating, and cells were allowed to grow for a subsequent 10 days in the presence of Rucaparib. For TSA clonogenic assays, the drug was added for 4 hours prior to addition of gemcitabine or vehicle for another 18 hours before drugs were washed away, and cells were allowed to grow in drug-free medium for 10 days.

Panc1 cells [2] = test: Time-lapse microscopy of H2B:gfp cells; assay type: cell-based, human; conditions: gemcitabine 50 nM
Method: Microscopy. For timelapse studies, Panc1 cells with stable expression of Histone H2B fused at its C-terminus to GFP were seeded into 6-well plates. 24 hours post cell plating, gemcitabine (50 nM) was added before timelapse was commenced. The plate was placed in a 37° C. chamber; bright-field and fluorescent images were taken every 5 minutes for 48 hours using a Nikon TE2000S microscope controlled by Metamorph (Molecular Devices). Three independent movies were conducted for each condition. Movies were allowed to commence for 48 hours for each independent experiment.
Time-lapse microscopy was used to track the fates of gemcitabine-treated Panc1 cells that stably expressed a H2B:gfp fusion protein that labeled chromosomes. Cells were transfected with siRNAs, treated with vehicle or gemcitabine and monitored every 10 minutes for 48 hours (FIG. 2).

Panc1 cells [3] = test: Immunofluorescence of DNA damage foci (phospho-γH2AX, Rad51) after gemcitabine; assay type: cell-based, human
Method: For Immunofluorescence, cells were plated onto coverslips 24 hours pre-gemcitabine treatment. At different timepoints post gemcitabine treatment, cells were permeablized, fixed (4% paraformaldehyde) and stained. Antibodies to γH2AX (Millipore; 05-636), Rad51 (a gift), and 53BP1 were used. Alexa Fluor-conjugated (488, 555, and 647 nm) secondary antibodies (Molecular probes; A-11029, A-21428, A-21247) were used at a final concentration of 1 and nuclei counterstained with DAPI. Images were captured using a 40× or 63× high NA objective mounted on a semi-automated inverted microscope (Nikon TEi) with a charge-coupled device camera (Photometrics1394) using Nikon Elements 2.0. Exposure times for antibodies were optimized for control samples and identical exposure times used for the experimental samples. Images were quantitated and analyzed using Nikon Elements 2.0. Confocal images were taken using a Leica TCS-SP8 microscope controlled by LAS software (Leica Microsystems).
It was investigated if these repair pathways were abrogated after VDR knockdown by staining for foci formation by phospho-γH2AX, Rad51, and 53BP1, and measuring intensities after gemcitabine treatment (FIGS. 3, 4, and 5). BxPC3 (high VDR expression) and Panc1 (low VDR expression) cells were treated with gemcitabine (50 nM) for 2, 4, 8, and 18 hours, and fixed and stained for phospho-γH2AX, 53BP1, and Rad51. Foci quantitation included counting of nuclei with >5 foci and a separate measurement of the sum intensities of foci that were averaged for 5 separate immunofluorescence experiments.

Panc1 cells [4] = test: Clonogenic survival assay, gemcitabine; assay type: cell-based, human; conditions: for IC50: Homo sapiens
Method: as §1, §2

Nc1ccn([C@@H]2O[C@H](CO)[C@@H](O)C2(F)F)c(=O)n1 [gemcitabine]
IC20 (Panc1 cells [1]): 50 nM
IC50 (CFPAC1 cells; CFPAC-1, CFPAC1, VDR depleted (VDR siRNA), read-out: IC50 gemcitabine): ~20 nM
IC50 (CFPAC1 cells; CFPAC-1, CFPAC1, control siRNA, read-out: mean IC50 gemcitabine): ~45 nM
IC50 (CFPAC1 cells; CFPAC-1, CFPAC1 cells, read-out: IC50 gemcitabine): ~45 nM
cell fate in 48 hour timelapse (Panc1 cells [2]; Panc1, Chk1 knockdown): enter mitosis where many died or died shortly after exit from mitosis
cell fate in 48 hour timelapse (Panc1 cells [2]; Panc1, VDR siRNA): never entered mitosis, but nevertheless died
cell fate in 48 hour timelapse (Panc1 cells [2]; Panc1, control siRNA): stopped proliferation
time until Rad51 foci visible after gemcitabine (Panc1 cells [3]; Panc1, gemcitabine 50 nM): 18 h
time until phospho-γH2AX foci form after gemcitabine (Panc1 cells [3]; Panc1, gemcitabine 50 nM): 18 h
time until phospho-γH2AX and Rad51 foci after gemcitabine addition (Panc1 cells [3]; Panc1 transfected with VDR siRNA): 18 h
time until phospho-γH2AX and Rad51 foci after gemcitabine addition (Panc1 cells [3]; Panc1 transfected with control): ~8 h
IC50 (Panc1 cells [4]; PANC-1, Panc1, VDR knockdown (siRNA)): ~18 nM
IC50 (Panc1 cells [4]; PANC-1, Panc1, control cells (control shRNA)): ~19 nM
IC50 (Panc1 cells [4]; PANC-1, Panc1, control transfected): ~30 nM
IC50 (Panc1 cells [4]; PANC-1, Panc1, p300 knockdown): ~16 nM
IC50 (Panc1 cells [4]; PANC-1, Panc1 transfected with WT-VDR (overexpression)): ~250 nM
IC50 (Panc1 cells [4]; PANC-1, Panc1 transfected with vector): ~25 nM
IC50 (Panc1 cells [4]; PANC-1, Panc1 cells): ~30 nM
cells survived (colony formation) compared to control samples treated with gemcitabine (Panc1 cells [4]; Panc1, Chk1 siRNA, 50 nM gemcitabine 24 hours): 3%
cells survived (colony formation) compared to control samples treated with gemcitabine (Panc1 cells [4]; Panc1, VDR siRNA, 50 nM gemcitabine 24 hours): 8%
colony formation, vehicle versus gemcitabine (Panc1 cells [4]; Panc1, control siRNA, 50 nM gemcitabine 24 hours): did not differ significantly
increase of gemcitabine IC50 over controls (Panc1 cells [4]; Panc1 cells with increased VDR levels): ~10 fold
